According to patent publication US20090324760A1, “Hair tonic” (priority 2005, published 2009):

Tested on: C3H mice
Assay: Hair-growth test on shaved back of C3H mice
Type: in vivo
Details: 0.2 mL per mouse twice a day for two weeks, measured on sixteenth day
Method: The hair-growth promoting effect of the hair tonic of the invention was evaluated according to the following hair-growth test. Commercially available acteoside (manufactured by ChromaDex Corp.) or the crude acteoside according to example 1 was dissolved in a 55% wt aqueous ethanol solution. Comparative example 1 was carried out using this aqueous ethanol solution as the reference.
C3H mice (males of 8-week age, average weight 35 g, a group of 10 mice) were used as test animals. Their back (2 cm×4 cm) was shaved to prepare a test area and from the following day onwards, each test sample (0.2 mL per mouse) was applied twice a day(morning and evening) for two weeks. On the sixteenth day, a picture of the test area was taken with a video camera, and hair-growth was measured with an image analyzer. The hair-growth promoting effect was evaluated as hair-growth rate (%) calculated according to the equation reported below.
[Hair-growth rate (%)]=[area of the hair-growth portion]/[test area]×100

With Acteoside [Example 2] the Hair growth rate (sample concentration 0.1 % by weight in 55% wt aqueous ethanol) was 61.05% and the Hair growth rate (sample concentration 0.2 % by weight in 55% wt aqueous ethanol) was 65.02%.
